This note sets out measurements from US9751875B2, “Quinine compounds, and optical isomers, preparation method and medical use thereof” (BEIJING FSWELCOME TECHNOLOGY DEVELOPMENT CO., LTD., priority 2013, dated 2017).

The subject of experiment [1] is tracheal smooth muscle from guinea pigs (contraction induced by 3 × 10^−6 mol/L of CCh). As to the kind of experiment: Antagonism in vitro of contraction of isolated tracheal smooth muscle from guinea pigs induced by carbachol (CCh). The experiment is classed as cell-based, guinea pig.
For experiment [2] the test system is unchanged. Described as above. The experiment is classed as cell-based, guinea pig. The source says: Preparation of the Isolated Tracheal Smooth Muscle Specimen from a Guinea Pig:
After a guinea pig was narcotized with urethane, the trachea between the throat and carina of the guinea pig was taken out rapidly, and placed in the Krebs-Henseleit (K-H) solution (composition (g/L): NaCl 6.92, KCl 0.35, CaCl2 0.28, KH2PO4 0.16, MgSO4.7H2O 0.4568, NaHCO3 2.1, Glucose 2.0) with a mixture gas of 5% CO2 and 95% O2 purged. After loose connective tissues and fats around the trachea were separated, the trachea was cut into trachea pieces having a width of about 3 mm and a length of 20 mm by a surgical scissor, with both ends of the trachea piece ligated with 4˜0 silk suture, and then placed into a thermostatic bath containing 5 ml of K—H solution (pH 7.4) at 37° C., with the mixture gas of 5% CO2 and 95% O2 continuously purged. A muscle tension transducer was connected to the upper end so as to apply 1.0 g of resting tension to the specimen, the change of the tension was recorded, the culture solution was replaced every 20 min, and the test was started after being balanced for 60 min.
Administration method: After the trachea piece was stabilized, 3×10^−6 mol/L of CCh was added into a bath, and after the contractile tension of the trachea piece reached a peak level, the example compounds, ipratropium bromide and tiotropium bromide were added into a Magnus bath by a cumulative dosing regimen with a dosage of 10^−9˜10^−5 mol, respectively, and the diastolic condition of the trachea piece was observed: if no response occurred (below the threshold concentration), a next dosage was continued to be added in sequence; if response occurred, after it reached a diastolic plateau, a next dosage was further added. The above operation was repeated until the contractile curve reached the minimum value. Finally, 10^−6 mol/L of isoprenaline was added so that the maximum relaxation would be reached and the curve was recorded.
Statistical approach: The result was expressed as mean ±standard deviation, and counted by Sigma Stat statistical package. The data was analyzed by using variance analysis, the comparison among means of a plurality of specimen was performed by using Student-Newman-Keuls(SNK) test; statistical significant level α=0.05 (bilateral).
Compounds shown in Table 5 were further prepared according to the present invention, and their IC50 […] of resistance to the contraction of tracheal smooth muscle from guinea pigs induced by a concentration of 3×10^−6 mol/L of CCh was determined.
The source holds these as a separate data set.

Where [3] appears, read: read-out: IC50 (μM), antagonism in vitro against the contraction of the tracheal smooth muscle induced by CCh, 3 × 10^−6 mol/L of CCh, cumulative dosing.
The mark [4] stands for this setting: Cavia porcellus, read-out: IC50 (μM), antagonism in vitro against the contraction of the tracheal smooth muscle induced by CCh, 3 × 10^−6 mol/L of CCh, cumulative dosing.
Setting [5] is: Cavia porcellus, 3 × 10^−6 mol/L of CCh, cumulative dosing, read-out: IC50 (μM), antagonism in vitro against the contraction of the tracheal smooth muscle induced by CCh.
Setting [6] is: Cavia porcellus, read-out: Resistance to the contraction of smooth muscle from guinea pigs in vitro, IC50 (μM), 3 × 10^−6 mol/L of CCh, Table 5.
[7] abbreviates: Cavia porcellus, 3 × 10^−6 mol/L of CCh, Table 5, read-out: Resistance to the contraction of smooth muscle from guinea pigs in vitro, IC50.

Molecules are shown by their SMILES. Like-named read-outs stand apart in the source and are kept apart here.

As to `OC(CO[C@H]1C[N+]2(CCCOc3ccccc3)CCC1CC2)(c1ccccc1)C1CCCC1.[Br-]` (stereo partly drawn) [Example 2, (2S,3S)-3-[(2-cyclopentyl-2-hydroxyl-2-phenyl)ethoxyl]-1-(3-phenoxypropyl)-1-azabicyclo[2,2,2]octane bromide], in experiment [1], the “Onset time” value was 6.53 min and the “Time for eliminating inhibition effect (min)” value is given as “more than 300 min”. In experiment [2] (setting [3]), the IC50 is 2.85 µM.

`OC(CO[C@@H]1C[N+]2(CCCOc3ccccc3)CCC1CC2)(c1ccccc1)C1CCCC1.[Br-]` (stereo partly drawn) [Example 3, (2S,3R)-3-[(2-cyclopentyl-2-hydroxyl-2-phenyl)ethoxyl]-1-(3-phenoxypropyl)-1-azabicyclo[2,2,2]octane bromide]: in experiment [1], the “Onset time” value was 6.54 min and the “Time for eliminating inhibition effect (min)” value is “more than 300 min”. Further, in experiment [2] (setting [3]), the IC50 turned out to be 0.852 µM.

`OC(CO[C@H]1C[N+]2(CCCOc3ccccc3)CCC1CC2)(c1ccccc1)C1CCCCC1.[Br-]` (stereo partly drawn) [Example 7, (2R,3S)-3-[(2-cyclohexyl-2-hydroxyl-2-phenyl)ethoxyl]-1-(3-phenoxypropyl)-1-azabicyclo[2,2,2]octane bromide]: in experiment [1], the “Onset time” value came out at 6.56 min and the “Time for eliminating inhibition effect (min)” value is listed as “more than 300 min”. Further, the IC50 in experiment [2] (setting [4]) is 0.791 µM.

In the case of `O[C@](CO[C@H]1C[N+]2(CCCOc3ccccc3)CCC1CC2)(c1ccccc1)C1CCCCC1.[Br-]` [Example 8, (2S,3S)-3-[(2-cyclohexyl-2-hydroxyl-2-phenyl)ethoxyl]-1-(3-phenoxypropyl)-1-azabicyclo[2,2,2]octane bromide], in experiment [1], the “Onset time” value worked out at 6.72 min and the “Time for eliminating inhibition effect (min)” value is reported as “more than 300 min”. Besides, the IC50 in experiment [2] (setting [4]) is 2.35 µM.

Turning to `O[C@](COC1C[N+]2(CCCOc3ccccc3)CCC1CC2)(c1ccccc1)C1CCCCC1.[Br-]` (stereo partly drawn) [Example 9, (2S,3R)-3-[(2-cyclohexyl-2-hydroxyl-2-phenyl)ethoxyl]-1-(3-phenoxypropyl)-1-azabicyclo[2,2,2]octane bromide], in experiment [1], the “Onset time” value was 6.13 min and the “Time for eliminating inhibition effect (min)” value is “more than 300 min”. For the same compound, the IC50 in experiment [2] (setting [4]) was found to be 0.758 µM.

In the case of `OC(CO[C@H]1C[N+]2(CCCOc3ccccc3)CCC1CC2)(c1ccccc1)C1CCCCC1` (stereo partly drawn) [Example 11, (2R,3S),(2S,3R) Configuration of 3-[(2-cyclohexyl-2-hydroxyl-2-phenyl)ethoxyl]-1-(3-phenoxypropyl)-1-azabicyclo[2,2,2]octane bromide], in experiment [1], the “Onset time” value was found to be 6.77 min and the “Time for eliminating inhibition effect (min)” value is “more than 300 min”. The IC50 in experiment [2] (setting [5]) worked out at 1.36 µM.

Take `OC(CO[C@H]1C[N+]2(CCCOc3ccccc3)CCC1CC2)(c1ccccc1)C1CCC1` (stereo partly drawn) [Example 13, (2R,3S)-3-[(2-cyclobutyl-2-hydroxyl-2-phenyl)ethoxyl]-1-(3-phenoxypropyl)-1-azabicyclo[2,2,2]octane bromide]: in experiment [1], the “Onset time” value is 7.25 min and the “Time for eliminating inhibition effect (min)” value is given as “more than 300 min”. The IC50 in experiment [2] (setting [5]) was found to be 0.917 µM.

`OC(CO[C@@H]1C[N+]2(CCCOc3ccccc3)CCC1CC2)(c1ccccc1)C1CCC1.[Br-]` (stereo partly drawn) [Example 15, (2S,3R)-3-[(2-cyclobutyl-2-hydroxyl-2-phenyl)ethoxyl]-1-(3-phenoxypropyl)-1-azabicyclo[2,2,2]octane bromide]: in experiment [1], the “Onset time” value was 6.29 min and the “Time for eliminating inhibition effect (min)” value is “more than 300 min”. Besides, the IC50 in experiment [2] (setting [3]) was 1.52 µM.

For the compound `OC(CO[C@H]1C[N+]2(CCCOc3ccccc3)CCC1CC2)(c1ccccc1)C1CCC1` (stereo partly drawn) [Example 17, (2R,3S),(2S,3R)-3-[(2-cyclobutyl-2-hydroxyl-2-phenyl)ethoxyl]-1-(3-phenoxypropyl)-1-azabicyclo[2,2,2]octane bromide], in experiment [1], the “Onset time” value is given as 7.05 min and the “Time for eliminating inhibition effect (min)” value is on record as “more than 300 min”. Moreover, the IC50 in experiment [2] (3 × 10^−6 mol/L of CCh, cumulative dosing, read-out: IC50 (μM), antagonism in vitro against the contraction of the tracheal smooth muscle induced by CCh) is 1.57 µM.

Regarding `COc1cccc2cccc(C(O)(COC3C[N+]4(CCCOc5ccccc5)CCC3CC4)C3CCCC3)c12` (stereo not drawn) [Example 34], the IC50 in experiment [2] (setting [6]) turned out to be 0.654 µM.

Regarding `OC(CCOC1C[N+]2(CCCOc3ccccc3)CCC1CC2)(c1ccccc1)C1CCCC1` (stereo not drawn) [Example 35], the IC50 in experiment [2] (setting [6]) amounted to 0.102 µM.

Consider `CC(=O)OC(COC1C[N+]2(CCCOc3ccccc3)CCC1CC2)(c1ccccc1)C1CCCC1` (stereo not drawn) [Example 36], for which the IC50 in experiment [2] (setting [6]) amounted to 0.068 µM.

In the case of `OC(COC1C[N+]2(CCCOc3ccccc3)CCC1CC2)(c1cccs1)C1CCCC1` (stereo not drawn) [Example 37], the IC50 in experiment [2] (setting [6]) was 0.0783 µM.

Turning to `OC(CCCCCCCOC1C[N+]2(CCCOc3ccccc3)CCC1CC2)(c1ccsc1)C1CCCC1` (stereo not drawn) [Example 38], the IC50 in experiment [2] (setting [6]) worked out at 0.0317 µM.

For `COC1C[N+]2(CCCOc3ccccc3)CCC1C(OCC(O)(c1ccccc1)C1CCCC1)C2` (stereo not drawn) [Example 39], the IC50 in experiment [2] (setting [6]) is 0.045 µM.

With `ClC(COC1C[N+]2(CCCOc3ccccc3)CCC1CC2)(c1ccccc1)C1CCCC1` (stereo not drawn) [Example 40], in experiment [2] (setting [6]), the IC50 is 0.805 µM.

Regarding `Cc1ccc(OCCC[N+]23CCC(CC2)C(OCC(O)(c2ccccc2)C2CCCC2)C3)cc1` (stereo not drawn) [Example 41], in experiment [2] (setting [6]), the IC50 is 0.0562 µM.

With `COc1ccc(OCCC[N+]23CCC(CC2)C(OCC(O)(c2ccccc2)C2CCCC2)C3)cc1` (stereo not drawn) [Example 42], the IC50 in experiment [2] (setting [6]) was 0.078 µM.

Turning to `CC(Oc1ccccc1)[N+]12CCC(CC1)C(OCC(O)(c1ccccc1)C1CCCC1)C2` (stereo not drawn) [Example 43], the IC50 in experiment [2] (setting [6]) was 0.0615 µM.

Consider `CC(C)(Oc1ccccc1)[N+]12CCC(CC1)C(OCC(O)(c1ccccc1)C1CCCC1)C2` (stereo not drawn) [Example 44], for which the IC50 in experiment [2] (setting [6]) is 0.147 µM.

As for `OC(COC1C[N+]2(C3(COc4ccccc4)CCCC3)CCC1CC2)(c1ccccc1)C1CCCC1` (stereo not drawn) [Example 45], the IC50 in experiment [2] (setting [6]) was 0.512 µM.

For the compound `OC(COC1C[N+]2(C3(COc4ccccc4)C=CC=C3)CCC1CC2)(c1ccccc1)C1CCCC1` (stereo not drawn) [Example 46], the IC50 in experiment [2] (setting [6]) is 1.23 µM.

On to `CCCCC(O)(COC1C[N+]2(CCCOc3ccccc3)CCC1CC2)c1ccccc1` (stereo not drawn) [Example 47], for which, in experiment [2] (setting [6]), the IC50 is 0.506 µM.

For `OC(COC1C[N+]2(CCCOc3ccccc3)CCC1CC2)(c1ccccc1)C1CCCC1` (stereo not drawn) [Example 48], the IC50 in experiment [2] (read-out: Resistance to the contraction of smooth muscle from guinea pigs in vitro, IC50, 3 × 10^−6 mol/L of CCh, Table 5) was 1.18 µM.

For `CC1CCCC1C(O)(COC1C[N+]2(CCCOc3ccccc3)CCC1CC2)c1ccccc1` (stereo not drawn) [Example 49], the IC50 in experiment [2] (setting [6]) stood at 0.045 µM.

As for `CC1=CC=CC1C(O)(COC1C[N+]2(CCCOc3ccccc3)CCC1CC2)c1ccccc1` (stereo not drawn) [Example 50], in experiment [2] (setting [6]), the IC50 is 0.413 µM.

In the case of `COC1C(OCC(O)(c2ccccc2)C2CCCC2)C2CC[N+]1(CCCOc1ccccc1)CC2` (stereo not drawn) [Example 52], the IC50 in experiment [2] (setting [6]) is 0.513 µM.

On to `OC(COC1C[N+]2(CCCOc3ccccc3)CCC1CC2)(CC1CCCC1)c1ccccc1` (stereo not drawn) [Example 53], for which the IC50 in experiment [2] (setting [6]) amounted to 2.17 µM.

For `OC(COC1C[N+]2(CCCOc3ccccc3)CCC1CC2)(c1ccccc1)C1CCCC1` (stereo not drawn) [Example 54], the IC50 in experiment [2] (setting [7]) is 0.0376 µM.

In the case of `OC(COC1C[N+]2(CCCOc3ccccc3)CCC1CC2)(c1ccccc1)C1CCCC1` (stereo not drawn) [Example 55], the IC50 in experiment [2] (setting [7]) is 0.0359 µM.
